# pKi: −log10 of the molar value. Counter-ions that a name gives are not always drawn.
# Biological target: truncated PI3Kα (p110α/iSH2 p85α) (Homo sapiens (Human), UniProt P42336)
# Assay: PI3KA_Act fluorescence polarization kinase assay (Ki)
# Type: biochemical
# Conditions: 1 mM ATP
# Procedure, shortened: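 p110α/iSH2 p85α (0.5 nM) was reacted with 30 μM sonicated PIP2 in 50 mM HEPES pH 7.4, 150 mM NaCl, 5 mM MgCl2, 1 mM DTT and 0.05% CHAPS for 30 min at room temperature, then stopped with EDTA. PIP3 was detected by fluorescence polarization (GST-Grp1 PH domain/TAMRA-PIP3), and Ki came from a Morrison tight-binding fit.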
# truncated PI3Kα (p110α/iSH2 p85α), sequence (P42336 whole entry, the tested form may be a part): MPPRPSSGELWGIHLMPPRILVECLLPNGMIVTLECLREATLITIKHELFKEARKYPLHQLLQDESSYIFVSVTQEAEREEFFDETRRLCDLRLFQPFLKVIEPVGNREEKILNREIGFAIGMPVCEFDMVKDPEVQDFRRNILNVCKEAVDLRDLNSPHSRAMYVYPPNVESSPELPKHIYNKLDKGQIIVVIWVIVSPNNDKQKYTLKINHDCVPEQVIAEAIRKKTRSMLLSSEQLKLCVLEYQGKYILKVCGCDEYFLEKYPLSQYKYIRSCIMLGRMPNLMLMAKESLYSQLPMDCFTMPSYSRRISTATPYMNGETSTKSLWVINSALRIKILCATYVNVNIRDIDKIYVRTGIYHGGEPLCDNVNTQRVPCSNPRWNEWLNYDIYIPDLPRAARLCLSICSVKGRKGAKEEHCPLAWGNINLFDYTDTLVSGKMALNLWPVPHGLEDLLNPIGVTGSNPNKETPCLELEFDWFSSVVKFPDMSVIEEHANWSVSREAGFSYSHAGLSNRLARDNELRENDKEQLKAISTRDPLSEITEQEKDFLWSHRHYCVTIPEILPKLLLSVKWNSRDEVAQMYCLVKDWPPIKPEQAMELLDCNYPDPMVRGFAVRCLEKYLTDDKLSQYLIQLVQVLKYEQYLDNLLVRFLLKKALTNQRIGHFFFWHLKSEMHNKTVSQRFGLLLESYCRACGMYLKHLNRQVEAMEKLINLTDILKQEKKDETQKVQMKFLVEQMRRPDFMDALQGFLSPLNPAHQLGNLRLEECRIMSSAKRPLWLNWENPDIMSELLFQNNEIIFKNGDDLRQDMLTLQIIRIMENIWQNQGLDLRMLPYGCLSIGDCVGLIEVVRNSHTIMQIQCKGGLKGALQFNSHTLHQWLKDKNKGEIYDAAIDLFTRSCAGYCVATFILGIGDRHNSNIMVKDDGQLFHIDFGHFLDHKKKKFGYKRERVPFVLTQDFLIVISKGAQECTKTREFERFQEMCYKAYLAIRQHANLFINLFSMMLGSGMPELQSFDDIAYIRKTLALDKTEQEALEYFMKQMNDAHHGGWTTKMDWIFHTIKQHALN
SMILES,PI3KA_Act Ki,pKi
"CC[C@H](N)C(=O)N1CC[C@](C)(N2CCc3c(-c4cnc(N)nc4)nc(N4CCOC[C@@H]4C)nc32)C1.Cl [Example 477, (2S)-2-amino-1-[(3S)-3-{4-(2-aminopyrimidin-5-yl)-2-[(3S)-3-methylmorpholin-4-yl]-5,6-dihydro-7H-pyrrolo[2,3-d]pyrimidin-7-yl}-3-methylpyrrolidin-1-yl]butan-1-one hydrochloride]",0.038 nM,
"CC[C@@H](N)C(=O)N1CC[C@](C)(N2CCc3c(-c4cnc(N)nc4)nc(N4CCOC[C@@H]4C)nc32)C1.Cl [Example 478, (2R)-2-amino-1-[(3S)-3-{4-(2-aminopyrimidin-5-yl)-2-[(3S)-3-methylmorpholin-4-yl]-5,6-dihydro-7H-pyrrolo[2,3-d]pyrimidin-7-yl}-3-methylpyrrolidin-1-yl]butan-1-one hydrochloride]",0.026 nM,
"C[C@H]1COCCN1c1nc(-c2cnc(N)nc2)c2c(n1)N([C@@]1(C)CCN(C(=O)[C@@H](N)CF)C1)CC2.Cl [Example 479, (2R)-2-amino-1-[(3S)-3-{4-(2-aminopyrimidin-5-yl)-2-[(3S)-3-methylmorpholin-4-yl]-5,6-dihydro-7H-pyrrolo[2,3-d]pyrimidin-7-yl}-3-methylpyrrolidin-1-yl]-3-fluoropropan-1-one hydrochloride]",0.026 nM,
"C[C@H]1COCCN1c1nc(-c2cnc(N)nc2)c2c(n1)N([C@@]1(C)CCN(C(=O)[C@H](N)CF)C1)CC2.Cl [Example 480, (2S)-2-amino-1-[(3S)-3-{4-(2-aminopyrimidin-5-yl)-2-[(3S)-3-methylmorpholin-4-yl]-5,6-dihydro-7H-pyrrolo[2,3-d]pyrimidin-7-yl}-3-methylpyrrolidin-1-yl]-3-fluoropropan-1-one hydrochloride]",<0.018 nM,
"C[C@H]1COCCN1c1nc(-c2cnc(N)nc2)c2c(n1)N([C@@]1(C)CCN(C(=O)[C@@H](N)C3CC3)C1)CC2.Cl [Example 481, (2S)-2-amino-1-[(3S)-3-{4-(2-aminopyrimidin-5-yl)-2-[(3S)-3-methylmorpholin-4-yl]-5,6-dihydro-7H-pyrrolo[2,3-d]pyrimidin-7-yl}-3-methylpyrrolidin-1-yl]-2-cyclopropylethanone hydrochloride]",0.149 nM,
"C[C@H]1COCCN1c1nc(-c2cnc(N)nc2)c2c(n1)N([C@@]1(C)CCN(C(=O)[C@H](N)C3CC3)C1)CC2.Cl [Example 482, (2R)-2-amino-1-[(3S)-3-{4-(2-aminopyrimidin-5-yl)-2-[(3S)-3-methylmorpholin-4-yl]-5,6-dihydro-7H-pyrrolo[2,3-d]pyrimidin-7-yl}-3-methylpyrrolidin-1-yl]-2-cyclopropylethanone hydrochloride]",0.022 nM,
"C[C@H]1COCCN1c1nc(-c2cnc(N)nc2)c2c(n1)N([C@@]1(C)CCN(C(=O)CN(C)C)C1)CC2 [Example 483, 1-[(3S)-3-{4-(2-aminopyrimidin-5-yl)-2-[(3S)-3-methylmorpholin-4-yl]-5,6-dihydro-7H-pyrrolo[2,3-d]pyrimidin-7-yl}-3-methylpyrrolidin-1-yl]-2-(dimethylamino)ethanone]",0.049 nM,
"C[C@H]1COCCN1c1nc(-c2cnc(N)nc2)c2c(n1)N([C@@]1(C)CCN(C(=O)C(C)(C)CN)C1)CC2.Cl [Example 484, 3-amino-1-[(3S)-3-{4-(2-aminopyrimidin-5-yl)-2-[(3S)-3-methylmorpholin-4-yl]-5,6-dihydro-7H-pyrrolo[2,3-d]pyrimidin-7-yl}-3-methylpyrrolidin-1-yl]-2,2-dimethylpropan-1-one hydrochloride]",<0.018 nM,
"C[C@H]1COCCN1c1nc(-c2cnc(N)nc2)c2c(n1)N([C@@]1(C)CCN(C(=O)[C@](C)(N)CO)C1)CC2.Cl [Example 485, (2R)-2-amino-1-[(3S)-3-{4-(2-aminopyrimidin-5-yl)-2-[(3S)-3-methylmorpholin-4-yl]-5,6-dihydro-7H-pyrrolo[2,3-d]pyrimidin-7-yl}-3-methylpyrrolidin-1-yl]-3-hydroxy-2-methylpropan-1-one hydrochloride]",<0.018 nM,
"C[C@H]1COCCN1c1nc(-c2cnc(N)nc2)c2c(n1)N([C@@]1(C)CCN(C(=O)[C@@](C)(N)CO)C1)CC2.Cl [Example 486, (2S)-2-amino-1-[(3S)-3-{4-(2-aminopyrimidin-5-yl)-2-[(3S)-3-methylmorpholin-4-yl]-5,6-dihydro-7H-pyrrolo[2,3-d]pyrimidin-7-yl}-3-methylpyrrolidin-1-yl]-3-hydroxy-2-methylpropan-1-one hydrochloride]",<0.018 nM,
"C[C@H]1COCCN1c1nc(-c2cnc(N)nc2)c2c(n1)N([C@@]1(C)CCN(C(=O)C(C)(N)CO)C1)CC2.Cl (stereo partly drawn) [Example 487, 2-amino-1-[(3S)-3-{4-(2-aminopyrimidin-5-yl)-2-[(3S)-3-methylmorpholin-4-yl]-5,6-dihydro-7H-pyrrolo[2,3-d]pyrimidin-7-yl}-3-methylpyrrolidin-1-yl]-3-hydroxy-2-methylpropan-1-one hydrochloride]",0.011 nM,
"CNC(C)(C)C(=O)N1CC[C@](C)(N2CCc3c(-c4cnc(N)nc4)nc(N4CCOC[C@@H]4C)nc32)C1.Cl [Example 488, 1-[(3S)-3-{4-(2-aminopyrimidin-5-yl)-2-[(3S)-3-methylmorpholin-4-yl]-5,6-dihydro-7H-pyrrolo[2,3-d]pyrimidin-7-yl}-3-methylpyrrolidin-1-yl]-2-methyl-2-(methylamino)propan-1-one hydrochloride]",<0.018 nM,
"C[C@H]1COCCN1c1nc(-c2cnc(N)nc2)c2c(n1)N([C@@]1(C)CCN(C(=O)C(F)(F)CN)C1)CC2.Cl [Example 489, 3-amino-1-[(3S)-3-{4-(2-aminopyrimidin-5-yl)-2-[(3S)-3-methylmorpholin-4-yl]-5,6-dihydro-7H-pyrrolo[2,3-d]pyrimidin-7-yl}-3-methylpyrrolidin-1-yl]-2,2-difluoropropan-1-one hydrochloride]",<0.018 nM,
"C[C@H]1COCCN1c1nc(-c2cnc(N)nc2)c2c(n1)N([C@@]1(C)CCN(C(=O)[C@@H](N)C(F)(F)F)C1)CC2.Cl [Example 490, (2R)-2-amino-1-[(3S)-3-{4-(2-aminopyrimidin-5-yl)-2-[(3S)-3-methylmorpholin-4-yl]-5,6-dihydro-7H-pyrrolo[2,3-d]pyrimidin-7-yl}-3-methylpyrrolidin-1-yl]-3,3,3-trifluoropropan-1-one hydrochloride]",<0.018 nM,
"C[C@H]1COCCN1c1nc(-c2cnc(N)nc2)c2c(n1)N([C@@]1(C)CCN(C(=O)[C@H](N)C(F)(F)F)C1)CC2.Cl [Example 491, (2S)-2-amino-1-[(3S)-3-{4-(2-aminopyrimidin-5-yl)-2-[(3S)-3-methylmorpholin-4-yl]-5,6-dihydro-7H-pyrrolo[2,3-d]pyrimidin-7-yl}-3-methylpyrrolidin-1-yl]-3,3,3-trifluoropropan-1-one hydrochloride]",0.050 nM,
"C[C@H]1COCCN1c1nc(-c2cnc(N)nc2)c2c(n1)N([C@@]1(C)CCN(C(=O)C3(N)CC3)C1)CC2.Cl [Example 492, (1-aminocyclopropyl)[(3S)-3-{4-(2-aminopyrimidin-5-yl)-2-[(3S)-3-methylmorpholin-4-yl]-5,6-dihydro-7H-pyrrolo[2,3-d]pyrimidin-7-yl}-3-methylpyrrolidin-1-yl]methanone hydrochloride]",0.101 nM,
"C[C@H]1COCCN1c1nc(-c2cnc(N)nc2)c2c(n1)N([C@@]1(C)CCN(C(=O)C3(CN)CC3)C1)CC2.Cl [Example 493, [1-(aminomethyl)cyclopropyl][(3S)-3-{4-(2-aminopyrimidin-5-yl)-2-[(3S)-3-methylmorpholin-4-yl]-5,6-dihydro-7H-pyrrolo[2,3-d]pyrimidin-7-yl}-3-methylpyrrolidin-1-yl]methanone hydrochloride]",0.061 nM,
"C[C@H]1COCCN1c1nc(-c2cnc(N)nc2)c2c(n1)N([C@@]1(C)CCN(C(=O)[C@@]3(C)CCN3)C1)CC2.Cl [Example 494, [(3S)-3-{4-(2-aminopyrimidin-5-yl)-2-[(3S)-3-methylmorpholin-4-yl]-5,6-dihydro-7H-pyrrolo[2,3-d]pyrimidin-7-yl}-3-methylpyrrolidin-1-yl][(2R)-2-methylazetidin-2-yl]methanone hydrochloride]",0.046 nM,
"C[C@H]1COCCN1c1nc(-c2cnc(N)nc2)c2c(n1)N([C@@]1(C)CCN(C(=O)[C@]3(C)CCN3)C1)CC2.Cl [Example 495, [(3S)-3-{4-(2-aminopyrimidin-5-yl)-2-[(3S)-3-methylmorpholin-4-yl]-5,6-dihydro-7H-pyrrolo[2,3-d]pyrimidin-7-yl}-3-methylpyrrolidin-1-yl][(2S)-2-methylazetidin-2-yl]methanone hydrochloride]",0.031 nM,
"C[C@H]1COCCN1c1nc(-c2cnc(N)nc2)c2c(n1)N([C@@]1(C)CCN(C(=O)C3(F)CNC3)C1)CC2 [Example 496, [(3S)-3-{4-(2-aminopyrimidin-5-yl)-2-[(3S)-3-methylmorpholin-4-yl]-5,6-dihydro-7H-pyrrolo[2,3-d]pyrimidin-7-yl}-3-methylpyrrolidin-1-yl](3-fluoroazetidin-3-yl)methanone hydrochloride]",,> 10.74
"C[C@H]1COCCN1c1nc(-c2cnc(N)nc2)c2c(n1)N([C@@]1(C)CCN(C(=O)C3(F)CN(C(=O)OC(C)(C)C)C3)C1)CC2 [Example 497, tert-butyl 3-{[(3S)-3-{4-(2-aminopyrimidin-5-yl)-2-[(3S)-3-methylmorpholin-4-yl]-5,6-dihydro-7H-pyrrolo[2,3-d]pyrimidin-7-yl}-3-methylpyrrolidin-1-yl]carbonyl}-3-fluoroazetidine-1-carboxylate]",,10.25
